CC(=O)c1cnccn1
solubility (mole fraction)
Conditions | 268.35 K | 273.15 K | 278.15 K | 283.21 K | 288.15 K | 293.05 K | 298.15 K | 303.15 K | 308.35 K
in DMF | 0.0822 | 0.0972 | 0.116 | 0.139 | 0.165 | 0.194 | 0.23 | 0.269 | 0.314
in NMP | 0.117 | 0.129 | 0.15 | 0.174 | 0.203 | 0.234 | 0.271 | 0.31 | 0.355
in acetone | 0.0511 | 0.0601 | 0.0727 | 0.0826 | 0.0977 | 0.119 | 0.137 | 0.153 | 0.174
in ethanol | 0.0073 | 0.0111 | 0.0136 | 0.0178 | 0.0231 | 0.0347 | 0.0433 | 0.0542 | 0.0727
in ethyl acetate | 0.0636 | 0.0746 | 0.0889 | 0.101 | 0.116 | 0.144 | 0.164 | 0.186 | 0.209
in isopropanol | 0.0052 | 0.0075 | 0.0106 | 0.0128 | 0.0195 | 0.0299 | 0.0382 | 0.0509 | 0.0698
in methanol | 0.013 | 0.0156 | 0.0179 | 0.0224 | 0.0281 | 0.0405 | 0.0485 | 0.0596 | 0.077
